Test results from EP0036153A1, “1,1-Diphenyl-2-(1,2,4-triazol-1-yl)-ethan-1-oles as antimycotic agents” (BASF Aktiengesellschaft, priority 1980, dated 1981).
≈ marks a conversion by molar mass, not a printed value. Structures can show the parent of a compound that is named as a salt. Where two headings read alike, the source gives them in different places.

What was measured:
[1] = tested on: Candida albicans (Robin) Berkhout No 20/M; assay: Pseudomycelium and mycelium phase test with Candida albicans (minimal inhibitory concentration, 100 % inhibition); assay type: cell-based; conditions: microaerophilic, 2 days, 37°C; for MIC: Candida albicans, 48 h, read-out: MHKMyzelph.
Source text: Pseudomyzel- und Myzelphasentest mit Candida albicans: • Dieser Test berücksichtigt, daß C. albicans in vivo nicht nur Sproßzellen, sondern auch Pseudomyzel und echtes Myzel ausbilden kann (Dimorphie). In vitro wird die Ausbildung aller Wachstumsphasen dieses Keimes und der Einfluß von antimyzetisch wirksamen Substanzen in folgender Weise geprüft: Candida albicans (Robin) Berkhout No 20/M (Stamm der Mykothek, Nordmark-Werke GmbH) wird mit der Impföse einerseits auf die Oberfläche A des Nährmediums (Brain Heart Infusion, Difco) und andererseits bei B als Stichkultur angeimpft (Figur).
Im Bereich der Stichkultur wird zusätzlich ein Deckglas C aufgelegt (mikroaerophile Bedingungen). Die Petrischale D enthält im Nährmedium eine geometrisch abgestufte Verdünnungsreihe der jeweiligen Prüfsubstanz. Nach Inkubation dieser Testplatten (2 Tage, 37°C) sind in präparatefreien Kontrollplatten im aeroben Berzirk A ausschließlich Sproßzellen (Hefephase), im mikroaerophilen Bezirk B ausschließlich Pseudohyphen und echte Hyphen gewachsen.
Als minimale Hemmkonzentrationen wurden diejenigen Konzentrationsstufen des Prüfpräparates bezeichnet, bei denen eine 100 %ige Hemmung des jeweiligen Pilzwachstums zu beobachten war.
Diese Testanordnung ermöglicht es, zwischen der minimalen Hemmkonzentration der Hefephase (MHKHefephase) ) und der MHK der Pseudomyzelphase bzw. M^yzelphase (MHKMyzelDhase) für Candida albicans zu unterscheiden.
Während die MHK-Werte für die Hefephase bei über 128 µg/ml liegen, ergeben sich für die Mycelphase äußerst niedrige MHK-Werte, wie aus der Tabelle 1 hervorgeht.

[2] = Acute oral toxicity (LD50) in the mouse; assay type: in vivo; conditions: for LD50: mouse, in vivo, po, Maus
T. mentagroph. = assay: Agar dilution test against dermatophytes; assay type: cell-based
Source text: (§1) Die antimikrobielle Wirksamkeit in vitro gegen Dermatophyt wurde im Agar-Dilutionstest (Lit.: P. Klein "Bakteriologische Grundlagen der chemotherapeutischen Laboratoriumspraxis") ermittelt. Das Ergebnis dieser Untersuchungen am Beispiel der Verbindung Nr. 3 zeigt Tabelle 2.

T. violaceum = assay: Agar dilution test against dermatophytes; assay type: cell-based; conditions: Trichophyton violaceum; T. violaceum No. 10; read-out: MHK
Source text: as §1

M. audouinii = assay: Agar dilution test against dermatophytes; assay type: cell-based; conditions: Microsporum audouinii; M. audouinii No. 4; read-out: MHK
Source text: as §1

M. canis = assay: Agar dilution test against dermatophytes; assay type: cell-based; conditions: Microsporum canis, read-out: MHK
Source text: as §1

E. floccosum = assay: Agar dilution test against dermatophytes; assay type: cell-based; conditions: Epidermophyton floccosum; E. floccosum No. 157; read-out: MHK
Source text: as §1

T. schoenleinii = assay: Agar dilution test against dermatophytes; assay type: cell-based; conditions: T. schoenleinii No. 9; read-out: MHK
Source text: as §1

M. ferrugineum = assay: Agar dilution test against dermatophytes; assay type: cell-based; conditions: M. ferrugineum No. 5; read-out: MHK
Source text: as §1

Row | SMILES | MIC [1] | LD50 [2] | MHKMyzelph. [1] | LD50 (Maus) p.o. [2] | other results
1 | OC(Cn1cncn1)(c1ccc(Cl)cc1)c1ccc(Cl)cc1 [Beispiel 1, 1,1-Bis-(4-chlorphenyl)-2-(1.2.4-triazol-1-yl)--äthan-1-ol] | < 0.125 µg/mL | > 1000 mg/kg |  |  | 
2 | OC(Cn1cncn1)(c1ccc(Cl)cc1)c1ccc(Cl)cc1 [Beispiel 2, 1,1-Bis-(4-chlorphenyl)-2-(1.2.4-triazol-1-yl)--äthan-1-ol-hydrochlorid] |  |  | <0,125 µg/ml | >1000 mg/kg | 
3 | OC(Cn1cncn1)(c1ccc(Cl)cc1)c1ccc(Cl)cc1Cl (centres unmarked) [Beispiel 3, 1-(4-Chlorphenyl)-1-(2,4-dichlorphenyl)-2-(1,2,4-triazol-1-yl)-äthan-1-ol] | < 0.125 µg/mL |  |  | >4000 mg/kg | MIC (T. mentagroph.; T. mentagroph. No. 172, read-out: MHK): 0.25 µg/mL (≈ 0.678 µM); MHK (T. mentagroph.; T. mentagroph. No. 173): 0,25 µg/ml; MIC (T. violaceum): 2 µg/mL (≈ 5.43 µM); MIC (M. audouinii): 0.25 µg/mL (≈ 0.678 µM); MIC (M. canis; M. canis No. 167): 4 µg/mL (≈ 10.9 µM); MIC (M. canis; M. canis No. 168): 2 µg/mL (≈ 5.43 µM); MIC (M. canis; M. canis No. 169): 8 µg/mL (≈ 21.7 µM); MIC (E. floccosum): 16 µg/mL (≈ 43.4 µM); MIC (T. schoenleinii): 0.25 µg/mL (≈ 0.678 µM); MIC (M. ferrugineum): 0.5 µg/mL (≈ 1.36 µM)
4 | OC(Cn1cncn1)(c1ccc(Cl)cc1)c1ccc(Cl)cc1Cl (centres unmarked) [Beispiel 4, 1-(4-Chlorphenyl)-1-(2,4-dichlorphenyl)-2-(1.2.4--triazol-1-yl)-äthan-1-ol-hydrochlorid] |  |  | <0,125 µg/ml | >1000 mg/kg | 
5 | OC(Cn1cncn1)(c1ccc(Cl)cc1)c1ccc(Cl)cc1Cl (centres unmarked) [Beispiel 5, 1-(4-Chlorphenyl)-1-(2,4-dichlorphenyl)-2-(1.2.4--triazol-1-yl)-äthan-1-ol-nitrat] |  |  | <0,125 µg/ml | >1000 mg/kg | 
6 | OC(Cn1cncn1)(c1ccccc1)c1ccccc1Cl (centres unmarked) [Beispiel 6, 1-Phenyl-1-(2-chlorphenyl)-2-(1.2.4-triazol-1-yl)--äthan-1-ol-hydrochlorid] | < 0.125 µg/mL | > 1000 mg/kg |  |  | 
7 | OC(Cn1cncn1)(c1ccccc1)c1ccc(Cl)cc1 (centres unmarked) [Beispiel 7, 1-Phenyl-1-(4-chlorphenyl)-2-(1.2.4-triazol-1-yl)-äthan--1-ol-hydrochlorid] |  |  |  | >1000 mg/kg | 
8 | OC(Cn1cncn1)(c1ccccc1)c1ccc(Cl)cc1 (centres unmarked) [Beispiel 8, 1-Phenyl-1-(4-chlorphenyl)-2-(1.2.4-triazol-1-yl)--äthan-1-ol-nitrat] | < 0.125 µg/mL | > 1000 mg/kg |  |  | 
9 | OC(Cn1cncn1)(c1ccccc1)c1ccc(Cl)cc1Cl (centres unmarked) [Beispiel 9, 1-Phenyl-1-(2,4-dichlorphenyl)-2-(1.2.4-triazol-1-yl)--äthan-1-ol] | < 0.125 µg/mL | > 1000 mg/kg |  |  | 
10 | OC(Cn1cncn1)(c1ccccc1)c1ccc(Cl)cc1Cl (centres unmarked) [Beispiel 10, 1-Phenyl-1-(2,4-dichlorphenyl)-2-(1.2.4-triazol-1-yl)--äthan-1-ol-hydrochlorid] |  |  | <0,125 µg/ml | >1000 mg/kg | 
11 | OC(Cn1cncn1)(c1ccccc1)c1ccc(Cl)cc1Cl (centres unmarked) [Beispiel 11, 1-Phenyl-1-(2,4-dichlorphenyl)-2-(1.2.4-triazol-1-yl)--äthan-1-ol-nitrat] |  |  | <0,125 µg/ml | >1000 mg/kg | 
12 | OC(Cn1cncn1)(c1ccc(Cl)cc1)c1ccccc1Cl (centres unmarked) [Beispiel 12, 1-(2-Chlorphenyl)-1-(4-chlorphenyl)-2-(1.2.4-triazol--1-yl)-äthan-1-ol-hydrochlorid] | 1 µg/mL | > 1000 mg/kg |  |  | 
13 | OC(Cn1cncn1)(c1ccccc1Cl)c1ccc(Cl)cc1Cl (centres unmarked) [Beispiel 13, 1-(2-Chlorphenyl)-1-(2,4-dichlorphenyl)-2-(1.2.4-triazol-1-yl)-äthan-1-ol] | 1 µg/mL (≈ 2.71 µM) | > 1000 mg/kg |  |  | 
14 | OC(Cn1cncn1)(c1ccccc1Cl)c1ccc(Cl)cc1Cl (centres unmarked) [Beispiel 14, 1-(2-Chlorphenyl)-1-(2,4-dichlorphenyl)-2-(1.2.4-triazol-1-yl)-äthan-1-ol-hydrochlorid] |  |  | 1 µg/mL | >1000 mg/kg | 
15 | OC(Cn1cncn1)(c1cccc(Cl)c1)c1ccc(Cl)cc1Cl (centres unmarked) [Beispiel 15, 1-(3-Chlorphenyl)-1-(2,4-dichlorphenyl)-2-(1.2.4-triazol-1-yl)-äthan-1-ol] |  | > 1000 mg/kg | <0,125 µg/ml |  | 
16 | OC(Cn1cncn1)(c1cccc(Cl)c1)c1ccc(Cl)cc1Cl (centres unmarked) [Beispiel 16, 1-(3-Chlorphenyl)-1-(2,4-dichlorphenyl)-2-(1.2.4-triazol-1-yl)-äthan-1-ol-hydrochlorid] |  |  | 1 µg/mL | >1000 mg/kg | 
